Tests used:
[1] = system: PR, SDF-1; test: qPCR of estrogen responsive genes PR and SDF-1; assay type: cell-based
Procedure: For FASN, PRLR and GCDFP-15, SYBR green quantitative gene expression analysis was performed using the following primers: FASN [NT] ID NO: 1), FASN […] ID NO: 2); PRLR [NT] ID NO: 3), PRLR […] ID NO: 4); […] ID NO: 5), […] ID NO: 6); 18[…] ID NO: 7), 18[…] ID NO: 8). For PR and SDF-1, taqman real time PCR was performed using validated primer/probe sets from Applied Biosystems (assay IDs: PR Hs01556702_ml, SDF-1 Hs00171022 ml, 18S Hs99999901_sl). Relative gene expression was calculated using the comparative Ct method and values were normalized to 18S.

[2] = target: T1, ERβ (Homo sapiens, UniProt Q92731); test: Radioligand binding assay, [3H] Estradiol displacement; conditions: 0.5 nM [3H] Estradiol; 0.1 μM to 100 μM
T1 construct: purchased Ricera Biosciences, LLC (contract assay)

[3] = system: MCF7-TGL cells; conditions: for decrease in whole body luminescence: day 11
Procedure: Tumor studies. […] Briefly, 10^6 MCF7-TGL cells stably expressing a triple fusion of thymidine kinase, GLP and luciferase (SFG-NES-TGL retroviral vector) for IVIS imaging purposes were mixed with Matrigel (BD Biosciences) and injected into the fourth inguinal mammary fat pad of female, ovariectomized athymic nu/nu or non-obese diabetic (NOD)/SCID mice (Taconic). At time of tumor injection, E2 pellets (60-day release, 1.5 mg/pellet, Innovative Research of America) or DHT (8 mg/pellet, packed and sealed in silastic tubing) were implanted subcutaneously (SQ) at the back of the neck. Tumor burden was assessed using in vivo imaging system (IVIS) or caliper measurements. Once the tumors had established, the mice were matched into groups on the basis of total tumor burden as measured by IVIS or caliper. […] The feed was irradiated and stored at 4° C. before use. […] All mice were given free access to MDV3100 mixed with chow or control chow during the entire study period and at an average of 3.5 g/day food intake. Feed was changed in the animal cages twice a week. Water and feed were prepared ad libitum. Two hours prior to sacrifice, mice were injected IP with 50 mg/kg BrDU (Sigma-Aldrich). Mice were euthanized by CO2 asphyxiation followed by cervical dislocation and blood, tumors, colon, uteri and mammary glands were harvested.
Immunohistochemistry. Slides were deparaffinized in a series of xylenes and ethanols and antigens were heat retrieved in either 10 mM citrate buffer pH 6.0 (BrdU, Ki67) or 10 mM Tris/1 mM EDTA buffer at pH 9.0 (AR, ER, caspase 3). Tissue for BrdU was incubated in 2N HCl followed by 0.1M sodium borate following antigen retrieval. […] Envision-HRP (Dakocytomation) was used for antibody detection. TUNEL staining for apoptosis was performed using the ApopTag Plus Peroxidase In Situ Apoptosis Detection Kit (Millipore), as per manufacturer's instructions. […] For BrdU and TUNEL staining in xenograft studies, three separate 200× fields of each xenograft tumor were taken using an Olympus BX40 microscope (Center Valley, Pa.) with a SPOT Insight Mosaic 4.2 camera and software (Diagnostic Instruments, Inc., Sterling Heights, Mich.). A color threshold (RGB for positive staining nuclei, and HSB for total nuclei) was adjusted manually using ImageJ (National Institutes of Health) for each image, and particles created by the thresholds were analyzed for total area. RGB area was divided by HSB area and multiplied by 100 for each image. For analysis of the nuclear androgen receptor, cleaved caspase 3 and Ki67, slides were scanned at 20× on an Aperio Scan ScanScope XT. Mammary tumor tissue was traced separately for each tumor and necrotic areas of the tumor removed using a negative pen tool in Aperio's Scanscope software. A Nuclear Algorithm was utilized to measure the percent positive cells for the Ki-67 and Androgen Receptor stained slides and the data exported. Cleaved Caspase 3 stained slides were analyzed using a modified Positive Pixel Count algorithm.

[4] = system: AR-dependent MMTV-luciferase reporter; test: Luciferase assay in MDA-kb2 cells; assay type: cell-based, human; conditions: Enza 10, 1, 0.1 μM, DHT, 24 h
Procedure: Luciferase Assays. MDA-kb2 cells were plated at 5×10^3 cells/well in 96-well luminescence plates and incubated overnight. Cells were treated with 10-fold serial dilutions of Enza (10, 1, 0.1 μM) and DHT (10, 1, 0.1, 0.01, 0.001 nM) that were prepared in DMSO. Following 24 h of incubation, the luminescence levels were determined with the luciferase assay system (Promega). Three independent experiments were performed and the luminescence values were determined as relative units (R.U.) and normalized to vehicle. Values were expressed as the mean fold induction±standard error (SE).

[5] = target: T2, ERα (Homo sapiens, UniProt P03372); test: Radioligand binding assay, [3H] Estradiol displacement; conditions: 0.5 nM [3H] Estradiol; 0.1 μM to 100 μM
T2 construct: purchased Ricera Biosciences, LLC (contract assay)
T2 sequence (P03372 1-595): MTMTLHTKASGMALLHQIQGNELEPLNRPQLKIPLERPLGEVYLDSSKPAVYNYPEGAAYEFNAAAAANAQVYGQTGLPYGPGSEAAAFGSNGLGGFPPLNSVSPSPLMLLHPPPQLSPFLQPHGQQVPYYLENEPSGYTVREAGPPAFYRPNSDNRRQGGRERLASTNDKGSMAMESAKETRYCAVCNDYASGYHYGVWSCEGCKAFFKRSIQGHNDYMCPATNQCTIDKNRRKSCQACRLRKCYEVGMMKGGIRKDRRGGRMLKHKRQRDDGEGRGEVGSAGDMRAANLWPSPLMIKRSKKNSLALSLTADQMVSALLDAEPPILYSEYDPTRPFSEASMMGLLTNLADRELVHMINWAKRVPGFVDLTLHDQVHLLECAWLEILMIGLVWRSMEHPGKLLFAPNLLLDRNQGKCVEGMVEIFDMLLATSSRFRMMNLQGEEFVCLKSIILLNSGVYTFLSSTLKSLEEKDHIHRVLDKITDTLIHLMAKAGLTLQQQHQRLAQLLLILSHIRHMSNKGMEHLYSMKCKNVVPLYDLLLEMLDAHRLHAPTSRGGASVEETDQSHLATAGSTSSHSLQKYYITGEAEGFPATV

[6] = system: breast cancer; test: Tamoxifen study: adjuvant tamoxifen cohort, Kaplan-Meier by AR:ER ratio; assay type: in vivo, female patients
[7] = E2 pellet, chow 50 mg/kg enzalutamide or tamoxifen pellet

T1 sequence (Q92731 whole entry): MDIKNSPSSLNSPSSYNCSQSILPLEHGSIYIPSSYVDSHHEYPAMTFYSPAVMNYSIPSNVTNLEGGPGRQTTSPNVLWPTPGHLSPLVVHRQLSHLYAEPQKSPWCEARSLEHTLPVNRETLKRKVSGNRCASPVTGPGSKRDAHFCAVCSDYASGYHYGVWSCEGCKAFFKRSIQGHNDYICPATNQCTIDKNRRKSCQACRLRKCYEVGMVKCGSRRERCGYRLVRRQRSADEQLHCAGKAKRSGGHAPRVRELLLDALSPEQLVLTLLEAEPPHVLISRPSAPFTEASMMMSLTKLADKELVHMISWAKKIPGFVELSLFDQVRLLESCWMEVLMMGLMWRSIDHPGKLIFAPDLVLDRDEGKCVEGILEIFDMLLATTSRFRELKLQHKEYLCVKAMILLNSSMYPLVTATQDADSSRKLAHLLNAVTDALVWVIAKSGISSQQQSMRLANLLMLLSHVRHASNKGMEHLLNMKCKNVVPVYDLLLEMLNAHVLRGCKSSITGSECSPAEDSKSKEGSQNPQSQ

Structure (SMILES)	E2-induced upregulation of PR and SDF-1 mRNA [1]	binding to ERβ [2]	decrease in AR nuclear localization in tumors ([3]; DHT pellet, chow 50 mg/kg)	increase in apoptotic cells (TUNEL staining) ([3]; DHT pellet, chow 50 mg/kg)	decrease in luminescence as compared to the DHT group ([3]; DHT pellet, chow containing 50 mg/kg enzalutamide, day 19, IVIS)	tumor burden ([3]; DHT pellet, enzalutamide by oral gavage)	apoptosis under E2-stimulated growth conditions ([3]; E2 pellet)	decrease in whole body luminescence [3, 7]	activation of androgen responsive luciferase reporter [4]	binding to ERα [5]	mean time to failure ([6]; AR:ER<1.3)	median time to failure ([6]; AR:ER<1.3)	median time to failure ([6]; AR:ER>=1.3)	mean time to failure ([6]; higher AR:ER ratio group (cut point 1.3))	decrease in cell proliferation compared to the E2 group (BrdU incorporation) [3, 7]
CNC(=O)c1ccc(N2C(=S)N(c3ccc(C#N)c(C(F)(F)F)c3)C(=O)C2(C)C)cc1F [enzalutamide]	inhibited	did not significantly bind	92.5%	50%	83.2%	decreased in a dose dependent manner	did not induce apoptosis	70.3%	inhibited activation of the luciferase construct in a dose dependent manner	did not significantly bind	–	–	–	–	–
CC/C(=C(\c1ccccc1)c1ccc(OCCN(C)C)cc1)c1ccccc1 [tamoxifen]	–	–	–	–	–	–	–	59.9%	–	–	45+/−2.3 months	> 120 months	30+/−2 months	29+/−4.3 months	46.4%

From US11221334B2, “Method for determining breast cancer treatment” (THE REGENTS OF THE UNIVERSITY OF COLORADO, A BODY CORPORATE, priority 2012, dated 2022)
